Reference: PMC5704913 (Toxicology and applied pharmacology, 2017)
Entries after “also recorded” stand apart in the source; their conditions may differ.

Columns and labels:
[1] = SOD activity assay; format: biochemical; settings: unit = amount that inhibits one-half the formation of adrenochrome at pH 10.2
[2] = H2O2 scavenging assay; format: biochemical; settings: read-out: H2O2 IC50; concentration that scavenged 50% of H2O2; 50 µM H2O2, 1 minute
[3] = test system: respiring brain mitochondria; settings: ref Castello et al., 2008; cited from earlier work
[4] = test system: MPTP-treated mice; settings: oral administration; ref Liang et al., 2007; cited from earlier work
[5] = Brain manganese levels by ICPMS after 7 days daily dosing; format: in vivo, C57BL/6 mice; settings: 15 mg/kg i.p. daily for 7 days
[6] = test system: C57BL/6 mice; assay: Open field test and accelerated rotarod test; format: in vivo; settings: 15 mg/kg i.p. daily for 7 days

Structure (SMILES) | SOD Activity [1] | IC50 [2] | H2O2 scavenging in respiring brain mitochondria (in words) [3] | effect on MPTP-induced neurotoxicity (in words) [4] | brain manganese levels vs vehicle (in words) [5] | increase of brain manganese levels [5] | neurobehavioral changes (open field, rotarod) vs vehicle [6]
COC(=O)c1c2nc(c(C(F)(F)F)c3ccc([n-]3)c(C(=O)OC)c3nc(c(C(F)(F)F)c4ccc1[n-]4)C=C3)C=C2.[Cl-].[Mn+3] [AEOL 11207] | 124 U/mg | 104 nM | potent H2O2 scavengers | inhibited MPTP-induced neurotoxicity | – | – | –
[Cl][Mn][Cl] [MnCl2] | – | – | – | – | increased brain manganese levels significantly | ~ 10 fold | significant deficit in movement; also recorded: significant rotarod deficit
